# Assay results from US11096929B2 (Ovid Therapeutics Inc., priority 2015, dated 2021).
# Entries after “also recorded” stand apart in the source; their conditions may differ.
# Tests used:
# [1] = tested on: healthy elderly male and female subjects; details: in vivo
# [2] = tested on: healthy, male and female subjects; experiment: Driving performance (real driving on the road) after evening and middle of the night dosing; assay type: in vivo, human; details: for effect on memory test, body sway, DSST or critical tracking: cognitive and psychomotor test battery; for effect on memory test, body sway, DSST or critical tracking / effect on driving: gaboxadol 15 mg; for tolerability / most frequent adverse events: 15 mg; for effect on driving: driving test at 9 am
# Description: The study participants included healthy, male and female subjects between 21 and 45 years of age, with a valid drivers license for at least 3 years.
# Following a cognitive and psychomotor test battery, the driving test started at 9 am and lasted for one hour.
# [3] = tested on: healthy adults subjected to a 5-hour sleep restriction; experiment: Daytime performance after sleep restriction (MSLT, SWS, KSS, neurobehavioral battery); assay type: in vivo, human
# Method: The study included a 2-night single-blind placebo run-in period, a 4-night double-blind treatment period during which sleep was restricted to 5 hours and a 2-night single-blind placebo run-out period. The study included healthy male and female volunteers 18 to <55 years of age.
# 2-night run-in period: All patients received placebo ?
# 2-night run-out period: All patients received placebo
# The primary endpoints included observations based on the Multiple Sleep Latency Test (MSLT) and Slow Wave Sleep (SWS) assessment.
# [4] = tested on: subjects with Angelman syndrome; experiment: Clinical Global Impressions (CGI-S, CGI-I) in 12-week placebo-controlled Angelman syndrome trial; assay type: in vivo, human; details: for percentage very much improved on CGI-I: QD group; for responders (one point or greater improvement in the CGI-I scale): once daily dose
# Description: CGI-S scale assessed all sub-domains of Angelman syndrome (gross and fine motor ability, sleep, and adaptive behavior) plus globally by the investigator. […] The Clinical Global Impressions-Improvement (CGI-I) scale was used to assess all sub-domains of Angelman syndrome (gross and fine motor ability, sleep, and adaptive behavior) plus globally by the investigator and caregiver. CGI-I is a 7-point scale in which the investigator rates the improvement or worsening of symptoms compared to baseline.
# [5] = tested on: subjects with Angelman syndrome; experiment: Sleep diary in 12-week placebo-controlled Angelman syndrome trial; assay type: in vivo, human; details: for 6-week LS Mean sleep time (total sleep time at night) / 12-week LS Mean sleep time (total sleep time at night): sleep diary
# Method: This multicenter, randomized, parallel (3-arm), double-blind, placebo-controlled trial enrolled 88 patients including adults (n=66) and adolescents (n=22) aged 13 to 49 years of age, diagnosed with Angelman syndrome. […] The dosing schedules that were assessed against placebo were once daily (QD): An evening dose titrated to the target dose of 15 mg unless not tolerated; and twice daily (BID): Evening and morning doses titrated to the target doses of 15 mg evening dose and 10 mg morning dose unless not tolerated.
# The observed and change from baseline in total hours of sleep time at night (assessed from subject Sleep Diary) is provided in Table III.
# [6] = tested on: subjects with Angelman syndrome; experiment: Adverse events in 12-week placebo-controlled Angelman syndrome trial; assay type: in vivo, human
# insomnia = details: three-month efficacy study; cited from earlier work
# [7] = tested on: Purkinje cells in cerebellar brain slices; details: low doses; cited from earlier work
# Ube3a-deficient mice = details: low doses; Ube3a-deficient mice in vivo; cited from earlier work
# [8] = tested on: patients with a history of drug abuse; details: cited from earlier work
# [9] = Plasma concentration profiles, dose proportionality and absolute bioavailability of gaboxadol after single oral doses and 10 mg IV; details: geometric mean, N = 10
# [10] = middle-of-the-night (4 am) administration, zolpidem 10 mg
# [11] = BID dosing (10 mg morning, 15 mg evening), N = 29
smiles,measurement,setting,value
CCN(CC)CCN1C(=O)CN=C(c2ccccc2F)c2cc(Cl)ccc21 [Flurazepam],residual effect on primary endpoints Choice Reaction Time and Critical Flicker Fusion,[1],showed significant effect
"Oc1noc2c1CCNC2 [gaboxadol, 4,5,6,7-tetrahydroisoxazolo [5,4-c]pyridine-3-ol]","effect on memory test, body sway, DSST or critical tracking",[2]; zopiclone 7.5 mg,no effect
same,tolerability,[2]; evening dose,well tolerated
same,most frequent adverse events,[2]; evening treatment,headache and somnolence
same,effect on driving compared with alcohol,[2]; gaboxadol 15 mg evening dose vs 0.05% blood alcohol concentration,less than the effect observed at a 0.05% blood alcohol concentration
same,effect on driving,[2]; [10],clinically relevant impairing effect
same,tolerability,[2]; middle-of-the-night dose,well tolerated
same,most frequent adverse events,[2]; middle-of-the-night treatment,"dizziness, nausea and somnolence"
same,"biophysiological measures of stress (heart rate variability, cortisol levels, catecholamine levels, body temperature) vs placebo",[3]; 15 mg vs placebo,no differences
same,"daytime performance, effect sizes for the neurocognitive battery",[3]; 15 mg vs placebo,no strong evidence that gaboxadol improves daytime performance
same,subjective daytime sleepiness vs placebo,"[3]; 15 mg, Sleep Restriction period",trend towards less subjective daytime sleepiness
same,amount of slow wave sleep (SWS) vs placebo,"[3]; 15 mg, Sleep Restriction period, p<0.001, 1 sided",increases the amount of slow wave sleep; also recorded: significantly more SWS
same,daytime sleepiness (sleep propensity by MSLT) vs placebo,"[3]; 15 mg, Sleep Restriction period, p=0.047, 1 sided",protective effect on reducing daytime sleepiness; also recorded: significantly less daytime sleepiness
same,"MSLT longer than placebo, average","[3]; 15 mg, last two Sleep Restriction days",2.01 min
same,"Karolinska Sleepiness Score (KSS) less than placebo, average","[3]; 15 mg, last two Sleep Restriction days, p=0.058, 1 sided, LDA model",0.68
same,"SWS longer than placebo, average","[3]; 15 mg, last two Sleep Restriction nights",20.53 min
same,CGI-I 6-week LS Mean,[4]; [11],3.54 (0.16)
same,CGI-I 12-week LS Mean,[4]; [11],3.58 (0.16)
same,CGI-I 6-week LS Mean difference,[4]; BID dosing minus placebo,−0.06 (0.21)
same,CGI-I 12-week LS Mean difference,[4]; BID dosing minus placebo,−0.21 (0.22)
same,CGI-I 6-week LS Mean,"[4]; Combined QD and BID, N = 58",3.45 (0.12)
same,CGI-I 12-week LS Mean,"[4]; Combined QD and BID, N = 58",3.29 (0.12)
same,CGI-I 6-week LS Mean difference,[4]; Combined minus placebo,−0.15 (0.18)
same,CGI-I 12-week LS Mean difference,[4]; Combined minus placebo,−0.49 (0.19)
same,CGI-I 6-week LS Mean,"[4]; QD dosing (15 mg evening), N = 29, 7-point scale, clinician assessed",3.54 (0.16)
same,CGI-I 6-week LS Mean difference,[4]; QD dosing minus placebo,−0.24 (0.21)
same,CGI-I 12-week LS Mean difference,[4]; QD dosing minus placebo,−0.78 (0.22)
same,percentage very much improved on CGI-I,"[4]; 18-24 year old, placebo 9%",27%
same,percentage very much improved on CGI-I,"[4]; oldest cohort (25-49), placebo 11%",20%
same,percentage very much improved on CGI-I,"[4]; youngest cohort (13-17), placebo 0%",33%
same,"CGI-S Hyperactivity, change","[4]; QD, placebo 3.1 to 3.0",3.5 to 2.9
same,"CGI-S Stereotypic behavior, change","[4]; QD, placebo 3.3 to 3.6",3.7 to 3.1
same,responders (one point or greater improvement in the CGI-I scale) in overall symptoms,"[4]; once daily dose cohort, all ages, placebo 26%",70%
same,responders (one point or greater improvement in the CGI-I scale),"[4]; 13-17 year old, placebo 29%",83%
same,responders (one point or greater improvement in the CGI-I scale),"[4]; 18-24 year old, placebo 27%",73%
same,responders (one point or greater improvement in the CGI-I scale),"[4]; 25-49 year old, placebo 22%",60%
same,"6-week LS Mean difference, sleep time",[5]; BID dosing,0.30 (1.1) hours
same,"12-week LS Mean difference, sleep time",[5]; BID dosing,0.18 (0.97) hours
same,6-week LS Mean sleep time (total sleep time at night),"[5]; BID dosing, N = 29",8.95 (1.1) hours
same,12-week LS Mean sleep time (total sleep time at night),"[5]; BID dosing, N = 29",8.84 (1.1) hours
same,"6-week LS Mean difference, sleep time",[5]; Combined,0.22 (0.94) hours
same,"12-week LS Mean difference, sleep time",[5]; Combined,0.07 (1.0) hours
same,6-week LS Mean sleep time (total sleep time at night),"[5]; Combined, N = 58",8.93 (1.3) hours
same,12-week LS Mean sleep time (total sleep time at night),"[5]; Combined, N = 58",8.80 (1.1) hours
same,"6-week LS Mean difference, sleep time",[5]; QD dosing,0.14 (0.81) hours
same,"12-week LS Mean difference, sleep time",[5]; QD dosing,−0.04 (1.1) hours
same,6-week LS Mean sleep time (total sleep time at night),"[5]; QD dosing, N = 29",8.91 (1.5) hours
same,12-week LS Mean sleep time (total sleep time at night),"[5]; QD dosing, N = 29",8.76 (1.2) hours
same,"subjects with Abdominal Pain upper, number (%)","[6]; BID dosing, N = 29",0
same,"subjects with At least 1 Adverse Event, number (%)","[6]; BID dosing, N = 29",19 (66%)
same,"subjects with Diarrhea, number (%)","[6]; BID dosing, N = 29",1 (3.4%)
same,"subjects with Gastrointestinal disorders, number (%)","[6]; BID dosing, N = 29",4 (13.8%)
same,"subjects with Nausea, number (%)","[6]; BID dosing, N = 29",2 (6.9%)
same,"subjects with Retching, number (%)","[6]; BID dosing, N = 29",1 (3.4%)
same,"subjects with Vomiting, number (%)","[6]; BID dosing, N = 29",1 (3.4%)
same,"subjects with Abdominal Pain upper, number (%)","[6]; Combined, N = 58",0
same,"subjects with At least 1 Adverse Event, number (%)","[6]; Combined, N = 58",37 (64%)
same,"subjects with Diarrhea, number (%)","[6]; Combined, N = 58",1 (1.7%)
same,"subjects with Gastrointestinal disorders, number (%)","[6]; Combined, N = 58",4 (6.9%)
same,"subjects with Nausea, number (%)","[6]; Combined, N = 58",2 (3.4%)
same,"subjects with Retching, number (%)","[6]; Combined, N = 58",1 (1.7%)
same,"subjects with Vomiting, number (%)","[6]; Combined, N = 58",1 (1.7%)
same,"subjects with Abdominal Pain upper, number (%)","[6]; QD dosing, N = 29",0
same,"subjects with At least 1 Adverse Event, number (%)","[6]; QD dosing, N = 29",18 (62%)
same,"subjects with Diarrhea, number (%)","[6]; QD dosing, N = 29",0
same,"subjects with Nausea, number (%)","[6]; QD dosing, N = 29",0
same,"subjects with Retching, number (%)","[6]; QD dosing, N = 29",0
same,"subjects with Vomiting, number (%)","[6]; QD dosing, N = 29",0
same,"subjects with Gastrointestinal disorders, number (%)","[6]; QD dosing, N = 29, placebo 6 of 29",0
same,residual effect on primary endpoints Choice Reaction Time and Critical Flicker Fusion,[1],did not show residual effect
same,"residual effects on other measurements (MSLT, DSST, Tracking, Memory tests, Body Sway, Leeds Sleep Evaluation Questionnaire)",[1],did not show any signs of residual effects
same,effects in sleep onset and sleep maintenance,insomnia,failed to show significant effects
same,abnormal firing properties of a population of Purkinje cells,[7],improve the abnormal firing properties
same,cerebellar ataxia,Ube3a-deficient mice,reduces cerebellar ataxia
same,psychiatric adverse events,[8],steep increase in psychiatric adverse events
same,Fe,[9]; 2.5 mg single oral dose,43%
same,Fe,[9]; 5 mg single oral dose,45%
same,Fe,[9]; 10 mg I.V.,53%
same,Fe,[9]; 10 mg Oral,53%
same,Fe,[9]; 15 mg single oral dose,50%
same,Fe,[9]; 20 mg single oral dose,53%
Cc1ccc(-c2nc3ccc(C)cn3c2CC(=O)N(C)C)cc1 [zolpidem],effect on driving,[2]; [10],numerically greater effect
CN1CCN(C(=O)OC2c3nccnc3C(=O)N2c2ccc(Cl)cn2)CC1 (stereo not drawn) [zopiclone],"effect on memory test, body sway, DSST or critical tracking",[2]; zopiclone 7.5 mg,had effect on several of these tests
same,effect on driving,"[2]; evening dose, zopiclone 7.5 mg",numerically greater effect
